Test results reported in patent US10369145B2, “Coumarin derivatives and methods of use in treating hyperproliferative diseases” (DISCOVERYBIOMED, INC., priority 2013, dated 2019).

What was measured:
HCT-116 = assay: NCI 60 panel: HCT-116 (Colon Cancer); assay type: cell-based
Text: (§1) TGI means the drug concentration resulting in total growth inhibition or “cytostasis.” LC50 is the concentration of drug resulting in a 50% reduction in the measured cytosolic ATP at the end of the drug treatment as compared to that at the beginning, indicating a net loss of cells following treatment (cytotoxicity).

HOP-92 = assay: NCI 60 panel: HOP-92 (Non-Small Cell Lung Cancer); assay type: cell-based
Text: as §1

NCI-H23 = assay: NCI 60 panel: NCI-H23 (Non-Small Cell Lung Cancer); assay type: cell-based
Text: as §1

LOX IMVI = assay: NCI 60 panel: LOX IMVI (Melanoma); assay type: cell-based
Text: as §1

IGROV1 = assay: NCI 60 panel: IGROV1 (Ovarian Cancer); assay type: cell-based
Text: as §1

c-Jun phosphorylation = assay: Intracellular signaling molecule phospho-array; assay type: cell-based; conditions: human hyperproliferative GBM cancer cells; effect requiring 24 hours
Procedure: An intracellular signaling molecule phospho-array was performed in compound-treated human hyperproliferative GBM cancer cells and in vehicle-treated human hyperproliferative GBM cancer cells. The tested compounds included Compound DBM 228 (002-N8-28), Compound DBM 328 (003-8COOH), and Compound DBM 308 (003-8Cl). DMSO served as the vehicle control. The numbers reflect pairs of spots in the typical dot blots that correspond to major kinases and other signaling proteins. Compound DBM 328 (003-8COOH) is a negative control for this array experiment to complement the DMSO vehicle control.

BT-549 = assay: NCI 60 panel: BT-549 (Breast Cancer); assay type: cell-based
Text: as §1

HCT-15 = assay: NCI 60 panel: HCT-15 (Colon Cancer); assay type: cell-based
Text: as §1

UO-31 = assay: NCI 60 panel: UO-31 (Renal Cancer); assay type: cell-based
Text: as §1

NCI-H460 = assay: NCI 60 panel: NCI-H460 (Non-Small Cell Lung Cancer); assay type: cell-based
Text: as §1

[1] = tested on: U251MG glioblastoma cells; assay: Propidium iodide-based cell cycle analysis; conditions: 24 h
Procedure: Cell cycle analysis was performed on U251-MG cells to determine at what point in the cell cycle the compounds described herein were acting. U251MG glioblastoma cells were treated for 24 h with increasing concentrations of Compound DBM 228.
However, at higher nM doses, the cells appear to progress toward apoptosis and programmed cell death, given the higher % of cells in pre-G0/G1.

[2] = read-out: LC50 (the source's name)

`COc1ccccc1Nc1nc(-c2cc3cccc(N)c3oc2=O)cs1` [Compound DBM 228] showed a GI50 (HCT-116) of 0.0795 µM, a TGI (HCT-116) of 10 µM and a CC50 (HCT-116; [2]) of over 100 µM. For the same compound, the GI50 (HOP-92) was 1.45 µM, the TGI (HOP-92) was 24.7 µM and the CC50 (HOP-92; [2]) was over 100 µM. The GI50 (NCI-H23) was 0.504 µM, the TGI (NCI-H23) was 15.8 µM and the CC50 (NCI-H23; [2]) was 63.1 µM. It also gave a GI50 (LOX IMVI) of 0.9 µM, a TGI (LOX IMVI) of 50.8 µM and a CC50 (LOX IMVI; [2]) of over 100 µM. For the same compound, the GI50 (IGROV1) was 1.23 µM, the TGI (IGROV1) was 23.4 µM and the CC50 (IGROV1; [2]) was over 100 µM. For the same compound, the “effect on c-Jun phosphorylation, in words” value (c-Jun phosphorylation) was “potentiation of c-Jun phosphorylation”, the GI50 (BT-549) was 0.239 µM and the TGI (BT-549) was 12.3 µM. It also gave a CC50 (BT-549; [2]) of over 100 µM, a GI50 (HCT-15) of 0.128 µM and a TGI (HCT-15) of 17.3 µM. For the same compound, the CC50 (HCT-15; [2]) was over 100 µM, the GI50 (UO-31) was 1.46 µM and the TGI (UO-31) was 43 µM. The CC50 (UO-31; [2]) was over 100 µM, the GI50 (NCI-H460) was 0.0912 µM and the TGI (NCI-H460) was 14.2 µM. The CC50 (NCI-H460; [2]) was over 100 µM, the “percentage of cells in G0/G1” value ([1]; 40 nM) was 52.2% and the “percentage of cells in G2/M” value ([1]; 40 nM) was 30.2%. The “percentage of cells in Pre-G0/G1” value ([1]; 40 nM) was 3.2%, the “percentage of cells in S” value ([1]; 40 nM) was 14.4% and the “percentage of cells in G0/G1” value ([1]; 100 nM) was 19.7%. The “percentage of cells in G2/M” value ([1]; 100 nM) was 41.1%, the “percentage of cells in Pre-G0/G1” value ([1]; 100 nM) was 13.6% and the “percentage of cells in S” value ([1]; 100 nM) was 25.6%. The “percentage of cells in G0/G1” value ([1]; 400 nM) was 1.8%, the “percentage of cells in G2/M” value ([1]; 400 nM) was 49.3% and the “percentage of cells in Pre-G0/G1” value ([1]; 400 nM) was 43.1%. The “percentage of cells in S” value ([1]; 400 nM) was 5.8% and the “cell cycle effect, in words” value ([1]; increasing concentrations) was “G2/M arrest”.
